Data set [1] concerns Green Peach Aphid ("GPA") (Myzus persicae) (MYZUPE). The data set is described as follows: Bioassays on Green Peach Aphid (GPA), foliar spray on infested cabbage seedlings. It counts as in vivo. As to conditions: 72 h, 200 ppm test solution sprayed on cabbage leaves until runoff, live aphids counted after three days at about 25° C., read-out: MYZUPE rating (% Control of Mortality, Abbott-corrected). An excerpt: Example A Bioassays on Green Peach Aphid (“GPA”) (Myzus persicae) (MYZUPE.)
GPA is the most significant aphid pest of peach trees, causing decreased growth, shriveling of leaves, and the death of various tissues. It is also hazardous because it acts as a vector for the transport of plant viruses, such as potato virus Y and potato leafroll virus to members of the nightshade/potato family Solanaceae, and various mosaic viruses to many other food crops. GPA attacks such plants as broccoli, burdock, cabbage, carrot, cauliflower, daikon, eggplant, green beans, lettuce, macadamia, papaya, peppers, sweet potatoes, tomatoes, watercress and zucchini among other plants. GPA also attacks many ornamental crops such as carnations, chrysanthemum, flowering white cabbage, poinsettia and roses. GPA has developed resistance to many pesticides.
Several molecules disclosed herein were tested against GPA using procedures described below.
Cabbage seedling grown in 3-in pots, with 2-3 small (3-5 cm) true leaves, were used as test substrate. The seedlings were infested with […] (wingless adult and nymph stages) one day prior to chemical application. Four posts with individual seedlings were used for each treatment. Test compounds (2 mg) were dissolved in 2 mL of acetone/methanol (1:1) solvent, forming stock solutions of 1000 ppm test compound. The stock solutions were diluted 5× with 0.025% Tween 20 in water to obtain the solution at 200 ppm test compound. A hand-held aspirator-type sprayer was used for spraying a solution to both sides of the cabbage leaves until runoff. Reference plants (solvent check) were sprayed with the diluent only containing 20% by volume acetone/methanol (1:1) solvent. Treated plants were held in a holding room for three days at approximately 25° C. and ambient relative humidity (RH) prior to grading. Evaluation was conducted by counting the number of live aphids per plant under a microscope. Percent Control was measured by using Abbott's correction formula (W. S. Abbott, “A Method of Computing the Effectiveness of an Insecticide” J. Econ. Entomol 18 (1925), pp. 265-267) as follows. Corrected % Control=100*(X−Y)/X • where • X=No. of live aphids on solvent check plants and • Y=No. of live aphids on treated plants
The results are indicated in the table entitled “Table 1: GPA (MYZUPE) and sweetpotato whitefly-crawler (BEMITA) Rating Table”.

In data set [2] the test system is Sweetpotato Whitefly Crawler (Bemisia tabaci) (BEMITA). The data set is described as follows: Bioassays on Sweetpotato Whitefly Crawler, foliar spray on infested cotton plants. It counts as in vivo. As to conditions: 200 ppm test solution sprayed on cotton leaves until runoff, live nymphs counted after 8-9 days at 82° F., 50% RH, read-out: BEMITA rating (% Control of Mortality, Abbott-corrected). The text has this:
Example B Bioassays on Sweetpotato Whitefly Crawler (Bemisia tabaci) (BEMITA.)
The sweetpotato whitefly, Bemisia tabaci (Gennadius), has been recorded in the United States since the late 1800s. In 1986 in Florida, Bemisia tabaci became an extreme economic pest. Whiteflies usually feed on the lower surface of their host plant leaves. From the egg hatches a minute crawler stage that moves about the leaf until it inserts its microscopic, threadlike mouthparts to feed by sucking sap from the phloem. Adults and nymphs excrete honeydew (largely plant sugars from feeding on phloem), a sticky, viscous liquid in which dark sooty molds grow. Heavy infestations of adults and their progeny can cause seedling death, or reduction in vigor and yield of older plants, due simply to sap removal. The honeydew can stick cotton lint together, making it more difficult to gin and therefore reducing its value. Sooty mold grows on honeydew-covered substrates, obscuring the leaf and reducing photosynthesis, and reducing fruit quality grade. It transmitted plant-pathogenic viruses that had never affected cultivated crops and induced plant physiological disorders, such as tomato irregular ripening and squash silverleaf disorder. Whiteflies are resistant to many formerly effective pesticides.
Cotton plants grown in 3-inch pots, with 1 small (3-5 cm) true leaf, were used at test substrate. The plants were placed in a room with whitefly adults. Adults were allowed to deposit eggs for 2-3 days. After a 2-3 day egg-laying period, plants were taken from the adult whitefly room. Adults were blown off leaves using a hand-held Devilbliss sprayer (23 psi). Plants with egg infestation (100-300 eggs per plant) were placed in a holding room for 5-6 days at 82° F. and 50% RH for egg hatch and crawler stage to develop. Four cotton plants were used for each treatment. Compounds (2 mg) were dissolved in 1 mL of acetone solvent, forming stock solutions of 2000 ppm. The stock solutions were diluted 10× with 0.025% Tween 20 in water to obtain a test solution at 200 ppm. A hand-held Devilbliss sprayer was used for spraying a solution to both sides of cotton leaf until runoff. Reference plants (solvent check) were sprayed with the diluent only. Treated plants were held in a holding room for 8-9 days at approximately 82° F. and 50% RH prior to grading. Evaluation was conducted by counting the number of live nymphs per plant under a microscope.

Counter-ions that a name gives are not always drawn.

As usually defined, the melting point is the temperature of the solid-liquid transition. The mortality is the share of the test organisms that died.

Regarding `O=[N+]([O-])c1cn(-c2cccnc2)nc1Cl` [Compound 5c, 3-(3-Chloro-4-nitro-1H-pyrazol-1-yl)pyridine], the melting point is 141 to 143 °C. As for `CCOC(=O)C1CC(=O)NN1c1cccnc1` (stereo not drawn) [Compound 18.6, Ethyl 5-oxo-2-(pyridin-3-yl)pyrazolidine-3-carboxylate], the mortality at 200 ppm in data set [1] and in data set [2] was 0 to 80% each time. Regarding `COC(=O)C1CC(Cl)=NN1c1cccnc1` (stereo not drawn) [Compound 6c, Methyl 3-chloro-1-(pyridin-3-yl)-4,5-dihydro-1H-pyrazole-5-carboxylate], the figures for the mortality at 200 ppm in data set [1] and in data set [2] were 0 to 80% and 80 to 100%, respectively.

In the case of `O=C(O)c1cc(Cl)nn1-c1cccnc1` [Compound 6e, 3-Chloro-1-(pyridine-3-yl)-1H-pyrazole-5-carboxylic Acid Hydrochloride], the mortality at 200 ppm in data set [1] was 0 to 80%; in data set [2], less than 0%. In the case of `O=C(O)/C=N/Nc1cccnc1` [Compound 6a, (E)-2-((2-Pyridin-3-yl)hydrazono)acetic Acid Hydrochloride], the mortality at 200 ppm in data set [1] and in data set [2] was 0 to 80% in each case. Regarding `CCOC(=O)C1CC(Cl)=NN1c1cccnc1` (stereo not drawn) [Compound 19.6, Ethyl 3-chloro-1-(pyridin-3-yl)-4,5-dihydro-1H-pyrazole-5-carboxylate], the mortality at 200 ppm in data set [1] and in data set [2] was 0 to 80% each time.

Consider `N#CC1CC(Cl)=NN1c1cccnc1` (stereo not drawn) [Compound 6b, 3-Chloro-1-(pyridine-3-yl)-4,5-dihydro-1H-pyrazole-5-carbonitrile], for which the mortality at 200 ppm is 0 to 80% in data set [1] and less than 0% in data set [2]. On to `COC(=O)c1cc(Cl)nn1-c1cccnc1` [Compound 6d, Methyl 3-chloro-1-(pyridin-3-yl)-1H-pyrazole-5-carboxylate], for which the values for the mortality at 200 ppm in data set [1] and in data set [2] were 0 to 80% and less than 0%, respectively.
